The record followed here is US20120100616A1, “METHOD OF DOUBLE CROSSOVER HOMOLOGOUS REC[…] CLOSTRIDIA” (THE UNIVERSITY OF NOTTINGHAM, priority 2009, published 2012).

Assay [1] concerns C. difficile cells harbouring the codA cassette. The experiment in a line: functionality testing of codA cassette for counter selection on minimal medium with FC. To be noted: 100 μg/ml FC, modified minimal medium, codA cassette on pMTL960 plasmid, FIG. 4. It is filed as cell-based. The text has this:
(§1) The codA expression cassette was isolated from the vector used by Fox et al., Gene Therapy. (1996) 3:173-178 and cloned into pMTL960. This plasmid was used to test the functionality of the codA gene in E. coli and C. difficile.

For assay [2], the system named is E. coli harbouring the codA construct. The experiment in a line: functionality testing of codA gene in E. coli with and without FC. It counts as cell-based. To be noted: codA cassette on pMTL960 plasmid, with vs without FC.
Text: as §1

Turning to `Nc1nc(=O)[nH]cc1F` [FC, 5-fluorocytosine], the “growth of cells expressing codA on minimal medium containing FC” value in assay [1] was “did not grow”. Also, the “growth of E. coli carrying the codA construct in presence of FC” value in assay [2] is “permitting growth in the absence of FC but not in the presence of FC”.
